Data on nine molecules can be found in patent publication EP3502109A1, “TRIAZOLE-PHENYL-THIAZOLE HETEROCYCLES AS INNOVATIVE INHIBITORS OF TRYPANOTHIONE REDUCTASE AND THEIR USE AS LEISHMANICIDES” (Consejo Superior De Investigaciones Científicas, priority 2017, dated 2019).

One assay has as its target recombinant Li-TryR (Leishmania infantum, UniProt A4HSF7). In words: Li-TryR oxidoreductase activity assay. The assay is classed as biochemical. The method, then:
Oxidoreductase activity was determined according to the method described by Hamilton et al. (Biochem. J., 2003, 369, 529-537). Briefly, reactions were carried out at 26 °C (250 µL) of HEPES pH 8.0 (40 mM) buffer containing EDTA (1 mM), NADPH (150 µM), NADP+ (30 µM), DTNB (25 µM), T[S]2 (1 µM), glicerol (0.02%), DMSO (1.5%) and recombinant Li-TryR (7 nM). […] Enzyme activity was monitored by the increase in absorbance at 412 nm for 1 h at 26 °C in a VERSAmax microplate reader (Molecular Devices, California, USA). All the assays were conducted in triplicate in at least three independent experiments. Data were analyzed using a non-linear regression model with the Grafit6 software (Erithacus, Horley, Surrey, UK).

Assay [1] addresses T1, Li-TryR dimeric form (Leishmania infantum, UniProt A4HSF7). In words: Dimer quantitation assay (ELISA), Li-TryR monomer displacement. The assay is classed as binding. The method, then: The stability of the Li-TryR dimeric form in the presence of the compounds was evaluated using an Enzyme-Linked ImmunoSorbent Assay (ELISA). Briefly a dual (HIS/FLAG) tagged Li-TryR (400 nM) was incubated in a dimerization buffer (200 µL 300 mM NaCl, 50 mM Tris pH 8.0) for 16 h at 37 °C with agitation and in a humid atmosphere in the presence of different peptide concentration (10 to 90 µM) in 1.5ml tubes. Next, the tubes were centrifuged at 30000 rcf and supernatants were disposed in anti-flag coated 96 well plates and incubated 30 min, at 37°C with gentle shaking. Then the plates were washed ten times with TTBS (Tween 0.1%, 2 mM Tris, 138 mM NaCl 138 pH 7.6) and incubated with diluted monoclonal α-HIS HRP conjugated antibody (200 µL, Abcam, Cambridge, UK) in BSA (5%) in TTBS for 1 h at room temperature. The plates were washed once again as previously described and 1,2-phenylenediamine dihydrochloride (OPD) substrate (100 µL, Dako, Glostrup, Denmark) prepared according to manufacturer's instructions was added. The enzymatic reaction was stopped after 10 min with H2SO4 (100 µL, 0.5 M) and the absorbances were measured at 490 nm in a VERSAmax microplate reader (Molecular Devices, California, USA). All the assays were conducted in triplicate in at least three independent experiments. Data were analyzed using a non-linear regression model with the Grafit6 software (Erithacus, Horley, Surrey, UK). Table 1. IC50 ± SEM values for target compounds of formula I-A and I-B in the oxidoreductase activity assays and in the Li-TryR monomer displacement

Assay [2] concerns L. infantum promastigotes. In words: Leishmanicidal activity on promastigotes (PI exclusion, flow cytometry). The assay is classed as cell-based. The conditions noted are these: Leishmania infantum, 24 h. On the procedure: L. infantum promastigotes (MCAN/ES/ 89/IPZ229/1/89) were grown in RPMI-1640 medium (Sigma-Aldrich, St. Louis, MO, USA) supplemented with 10% heat-inactivated fetal calf serum (FCS), antibiotics, and 25 mm HEPES (pH 7.2) at 26 °C.
(§1) Drug treatment of amastigotes was performed during the logarithmic growth phase at a concentration of 1×10^6 parasites/mL at 37 °C for 24 h. Drug treatment of promastigotes was performed during the logarithmic growth phase at a concentration of 2×10^6 parasites/mL at 26 °C for 24 h. The percentage of living cells was evaluated by flow cytometry by the propidium iodide (PI) exclusion method.^17 Drug concentrations ranged from 0.2 µM to 25 µM.

Assay [3] has as its system L. infantum axenic amastigotes. In words: Leishmanicidal activity on axenic amastigotes (PI exclusion, flow cytometry). The settings on record: Leishmania infantum, 24 h. The assay is classed as cell-based. The method, then: L. infantum axenic amastigotes were grown in M199 (Invitrogen, Leiden, The Netherlands) medium supplemented with 10% heat inactivated FCS, 1 g/L β-alanine, 100 mg/L L-asparagine, 200 mg/L sacarose, 50 mg/L sodium pyruvate, 320 mg/L malic acid, 40 mg/L fumaric acid, 70 mg/L succinic acid, 200 mg/L α-ketoglutaric acid, 300 mg/L citric acid, 1.1 g/L sodium bicarbonate, 5 g/L MES, 0.4 mg/L hemin, 10 mg/L gentamicine pH 5.4 at 37 °C. THP-1 cells were grown in RPMI-1640 medium (Gibco, Leiden, The Netherlands) supplemented with 10% heat inactivated FCS, antibiotics, 1 mM HEPES, 2 mM glutamine and 1 mM sodium pyruvate, pH 7.2 at 37 °C and 5% CO2.
as §1

The subject of assay [4] is L. infantum intracellular amastigotes. In words: Leishmania infection assay (intracellular amastigotes in THP-1 macrophages). The assay is classed as cell-based. The conditions noted are these: THP-1, 48 h. On the procedure:
Human THP-1 monocytic cells were seeded at 1.2 x 10^5 cells/ml in 24-multidish plates (Nunc, Roskilde, Denmark) and differentiated to macrophages for 24 h in 1 ml of RPMI 1640 medium containing 10 ng/ml of phorbol 12-myristate 13-acetate (PMA) (Sigma-Aldrich, St. Louis, MO). Medium culture was removed, and 1.2 x 10^6 Leishmania amastigotes in 1 ml of THP-1 medium were added to each well. Four hours later, the medium with non-infective amastigotes was completely removed, washed 3 times with 1 phosphate-buffered saline (PBS), and replaced with new THP-1 medium and the corresponding treatment. After 48 h of treatment, medium was removed; THP-1 cells were washed 3 times with 1xPBS and detached with TrypLE Express (Invitrogen, Leiden, The Netherlands) according to the manufacturer's indications. Infection quantification was measured by flow cytometry. Drug concentrations ranged from 0.2 µM to 25 µM.

Assay [5] deals with macrophage-differentiated THP-1 monocytes. In words: Cytotoxicity assay, macrophage-differentiated THP-1 (crystal violet). The assay is classed as cell-based. The conditions noted are these: Homo sapiens, THP-1, 24 h; read-out: EC50 (µM) THP-1 dif. On the procedure:
(§2) Human THP-1 monocytic cells were seeded at 1.2 x 10^5 cells/ml in 24-multidish plates (Nunc, Roskilde, Denmark) and differentiated to macrophages for 24 h in 1 ml of RPMI 1640 medium containing 10 ng/ml of phorbol 12-myristate 13-acetate (PMA) (Sigma-Aldrich, St. Louis, MO). Human HepG2 cells were seeded at 8 x 10^5 cells/ml in 24-multidish plates (Nunc, Roskilde, Denmark). After 24 h of drug treatment, both cell lines were washed with PBS and stained with violet crystal solution (0.2% in 2% ethanol) in for 10 min. at room temperature. After dye removal, cells were washed twice with water. Once dried, the wells were treated with 1% SDS for 30 min and the absorbance at 570nm was monitored in a plate reader. Table 2. EC50± SEM values for the compounds of formula I-A and I-B on L. infantum promastigotes, extracellular and intracellular amastigotes and cytotoxic activity in macrophage-differentiated THP-1 monocytes and HepG2 cell lines

The test system of another assay is HepG2 cells. In words: Cytotoxicity assay, HepG2 (crystal violet). The settings on record: Homo sapiens, HepG2, 24 h. The assay is classed as cell-based. The method, then:
as §2

In assay [6] the target is T1, Li-TryR dimeric form. The conditions noted are these: background, ChemBioChem, 2013, 14(10), 1212-1217; cited from earlier work.

Counter-ions that a name gives are not always drawn.

Sequence of recombinant Li-TryR (A4HSF7 entry or part of it): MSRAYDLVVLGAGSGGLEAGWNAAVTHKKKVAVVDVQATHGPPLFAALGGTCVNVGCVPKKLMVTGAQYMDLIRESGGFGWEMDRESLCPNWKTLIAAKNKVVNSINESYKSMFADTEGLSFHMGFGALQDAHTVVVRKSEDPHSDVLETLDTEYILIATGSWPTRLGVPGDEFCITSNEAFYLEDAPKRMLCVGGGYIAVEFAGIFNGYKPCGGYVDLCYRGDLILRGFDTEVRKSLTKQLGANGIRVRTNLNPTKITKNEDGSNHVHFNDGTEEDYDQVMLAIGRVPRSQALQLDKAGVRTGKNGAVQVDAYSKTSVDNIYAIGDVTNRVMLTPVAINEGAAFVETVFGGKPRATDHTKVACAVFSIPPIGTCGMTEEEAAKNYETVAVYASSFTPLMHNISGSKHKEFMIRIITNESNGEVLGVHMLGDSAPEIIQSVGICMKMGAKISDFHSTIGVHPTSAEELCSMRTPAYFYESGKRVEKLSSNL
T1 sequence (A4HSF7 entry or part of it): as above

In the case of `NCCCCc1cn(-c2ccc(-c3nc(CCc4ccc5ccccc5c4)cs3)c(OCCN3CCNC3=O)c2)nn1` [Compound 8g, 1-(2-(5-(4-(4-Aminobutyl)-1H-1,2,3-triazol-1-yl)-2-(4-(2-(naphthalen-2-yl)ethyl)thiazol-2-yl)phenoxy)ethyl)imidazolidin-2-one 2,2,2 trifluoroacetate], the figures for the IC50 at recombinant Li-TryR and at Li-TryR dimeric form [1] were 6.22 ± 1.01 µM and 11.2 ± 0.41 µM, respectively. Moreover, the EC50 in assay [2] turned out to be 8.79 ± 0.75 µM; in assay [3] it was 23 ± 1.86 µM; in assay [4], 31.2 ± 1.9 µM; in assay [5], 47.6 ± 3.3 µM; in the assay with HepG2 cells, 33.3 ± 2.7 µM.
Regarding `C[n+]1nn(-c2ccc(-c3nc(CCc4ccc5ccccc5c4)cs3)c(OCCN3CCNC3=O)c2)cc1CCCCN` [Compound 10c, 4-(4-Ammoniobutyl)-3-methyl-1-(4-(4-(2-(naphthalen-2-yl)ethyl)thiazol-2-yl)-3-(2-(2-oxoimidazolidin-1-yl)ethoxy)phenyl)-1H-1,2,3-triazol-3-ium 2,2,2-trifluoroacetate trifluoromethanesulfonate], the values for the IC50 on recombinant Li-TryR and at Li-TryR dimeric form [1] were 2.67 ± 0.13 µM and 82.7 ± 2.4 µM, respectively. Further, the EC50 is 17.9 ± 3.76 µM in assay [2], 12.9 ± 0.51 µM in assay [3], not below 75 µM in assay [5] and not below 75 µM in the assay on HepG2 cells.
In the case of `NCCCCc1cn(-c2ccc(-c3nc(CCc4ccccc4)cs3)c(OCCN3CCNC3=O)c2)nn1` [Compound 8e, 1-(2-(5-(4-(4-Aminobutyl)-1H-1,2,3-triazol-1-yl)-2-(4-phenethylthiazol-2-yl)phenoxy)ethyl)imidazolidin-2-one 2,2,2 trifluoroacetate], the 50% effective concentration (EC50) in assay [2] was 30.54 ± 0.16 µM; in assay [3] it was 13.9 ± 0.6 µM; in assay [4] it was 33.6 ± 1.5 µM; in assay [5], 27.2 ± 1.2 µM; with HepG2 cells, 20.4 ± 2.37 µM.
`NCCCCc1cn(-c2ccc(-c3nc(CCc4ccc(-c5ccccc5)cc4)cs3)c(OCCN3CCNC3=O)c2)nn1` [Compound 8h, 1-(2-(2-(4-(2-([1,1'-Biphenyl]-4-yl)ethyl)thiazol-2-yl)-5-(4-(4-aminobutyl)-1H-1,2,3-triazol-1-yl)phenoxy)ethyl)imidazolidin-2-one 2,2,2 trifluoroacetate]: the IC50 on recombinant Li-TryR was determined as 11.6 ± 2.05 µM; on Li-TryR dimeric form [1], 5.94 ± 0.99 µM. Further, the EC50 in assay [2] turned out to be 5.44 ± 0.44 µM; in assay [3], 13.9 ± 0.93 µM; in assay [5], 45.7 ± 0.6 µM; in the assay with HepG2 cells, 43.1 ± 2.65 µM.
`CC(C)(C)Cc1csc(-c2ccc(-n3cc(CCCCN)nn3)cc2OCCN2CCNC2=O)n1` [Compound 8b, 1-(2-(5-(4-(4-Aminobutyl)-1H-1,2,3-triazol-1-yl)-2-(4-neopentylthiazol-2-yl)phenoxy)ethyl)imidazolidin-2-one 2,2,2 trifluoroacetate]: the IC50 is 17.2 ± 1.69 µM on recombinant Li-TryR and more than 75 µM at Li-TryR dimeric form [1]. The EC50 in assay [2] was 45 ± 3.51 µM; in assay [3] it was 18.2 ± 0.4 µM; in assay [4], 30.2 ± 1.7 µM.
Consider `C[n+]1nn(-c2ccc(-c3nc(CCc4ccc(-c5ccccc5)cc4)cs3)c(OCCN3CCNC3=O)c2)cc1CCCCN` [Compound 10e, 1-(4-(4-(2-([1,1'-Biphenyl]-4-yl)ethyl)thiazol-2-yl)-3-(2-(2-oxoimidazolidin-1-yl)ethoxy)phenyl)-4-(4-ammoniobutyl)-3-methyl-1H-1,2,3-triazol-3-ium 2,2,2-trifluoroacetate trifluoromethanesulfonate], for which the half-inhibitory concentration (IC50) at recombinant Li-TryR is 5.19 ± 0.82 µM; at Li-TryR dimeric form [1], 23.8 ± 0.96 µM. Moreover, the EC50 was 18.7 ± 1.26 µM in assay [2]; 11.6 ± 1.14 µM in assay [3]; 19.5 ± 1 µM in assay [4]; 21.6 ± 0.7 µM in assay [5]; not below 75 µM in the assay on HepG2 cells.
On to “PEIIQSVGIS-Nle-K-Nle: 13-mer linear peptide derived from an α-helix spanning residues P435 to M447 of Li-TryR; prototype dimerization inhibitor (C-terminal Nle-K-Nle)”, for which the Li-TryR dimerization inhibition entry in the assay with Li-TryR dimeric form [6] was “low micromolar range”.
Turning to `C[n+]1nn(-c2ccc(-c3nc(CCc4ccc5c(c4)CCO5)cs3)c(OCCN3CCNC3=O)c2)cc1CCCCN` [Compound 10d, 4-(4-Ammoniobutyl)-1-(4-(4-(2-(2,3-dihydrobenzofuran-5-yl)ethyl)thiazol-2-yl)-3-(2-(2-oxoimidazolidin-1-yl)ethoxy)phenyl)-3-methyl-1H-1,2,3-triazol-3-ium 2,2,2-trifluoroacetate trifluoromethanesulfonate], the IC50 on recombinant Li-TryR is 5.42 ± 0.23 µM; on Li-TryR dimeric form [1], more than 75 µM. The EC50 in assay [2] was 47 ± 2.08 µM; in assay [3], not below 75 µM; in assay [5] it was not below 75 µM; in the assay with HepG2 cells, not below 75 µM.
“PKIIQSVGIS-Nle-K-Nle: 13-mer linear peptide derived from an α-helix spanning residues P435 to M447 of Li-TryR; prototype dimerization inhibitor (C-terminal Nle-K-Nle)”: the Li-TryR dimerization inhibition result with Li-TryR dimeric form [6] is listed as “low micromolar range”.

In general, IC50 refers to the concentration at which inhibition is half-maximal. As a reminder, the EC50 is the concentration needed to bring the measured effect to its halfway point.
